Measurements reported in ChEMBL document CHEMBL5465560, “Selectivity Literature for EUbOPEN Chemogenomic Library” (2024).

Key:
[1] = molecular target: T1, Ephrin type-B receptor 3 (Homo sapiens) (UniProt P54753); conditions: at 10 µM
T1 sequence (whole entry): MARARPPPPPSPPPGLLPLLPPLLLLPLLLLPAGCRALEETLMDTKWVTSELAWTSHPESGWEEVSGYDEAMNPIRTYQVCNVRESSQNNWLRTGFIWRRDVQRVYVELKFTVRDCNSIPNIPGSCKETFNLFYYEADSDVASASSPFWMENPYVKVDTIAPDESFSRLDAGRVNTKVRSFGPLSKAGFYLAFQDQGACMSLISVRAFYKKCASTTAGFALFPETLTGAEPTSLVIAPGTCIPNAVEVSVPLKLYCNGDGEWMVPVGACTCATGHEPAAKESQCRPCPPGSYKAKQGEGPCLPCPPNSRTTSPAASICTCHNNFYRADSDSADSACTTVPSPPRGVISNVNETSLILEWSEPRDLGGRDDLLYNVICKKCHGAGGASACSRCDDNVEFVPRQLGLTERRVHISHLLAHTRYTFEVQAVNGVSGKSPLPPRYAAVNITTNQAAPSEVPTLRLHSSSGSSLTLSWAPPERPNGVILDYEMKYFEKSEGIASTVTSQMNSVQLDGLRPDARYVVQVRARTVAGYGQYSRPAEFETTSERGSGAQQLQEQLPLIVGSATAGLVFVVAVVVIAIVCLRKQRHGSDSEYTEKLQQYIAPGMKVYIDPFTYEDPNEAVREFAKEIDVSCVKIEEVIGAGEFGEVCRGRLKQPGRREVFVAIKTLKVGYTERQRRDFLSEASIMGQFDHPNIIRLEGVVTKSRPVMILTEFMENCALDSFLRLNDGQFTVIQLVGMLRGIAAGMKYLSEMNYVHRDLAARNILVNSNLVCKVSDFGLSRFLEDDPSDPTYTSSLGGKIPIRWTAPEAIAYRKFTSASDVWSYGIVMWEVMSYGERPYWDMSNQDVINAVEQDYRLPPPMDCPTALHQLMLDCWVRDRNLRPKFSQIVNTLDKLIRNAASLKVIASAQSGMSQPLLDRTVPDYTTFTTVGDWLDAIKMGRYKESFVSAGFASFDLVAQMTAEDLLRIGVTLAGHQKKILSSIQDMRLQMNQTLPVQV

[2] = molecular target: Serine/threonine-protein kinase Nek7 (Homo sapiens) (UniProt Q8TDX7); experiment: Selectivity interaction (ActivX KiNativ screen (kinase selectivity in THP-1 cell lysates)) EUB0000639a NEK7; assay type: subcellular; conditions: lysate, at 0.04 µM
[3] = molecular target: T2, Casein kinase I isoform alpha (Homo sapiens, UniProt P48729); experiment: Selectivity interaction (ActivX KiNativ screen (kinase selectivity in THP-1 cell lysates)) EUB0000639a CSNK1A1; assay type: subcellular; conditions: lysate
[4] = molecular target: Phosphatidylinositol 4-kinase beta (Homo sapiens, UniProt Q9UBF8); experiment: Selectivity interaction (ActivX KiNativ screen (kinase selectivity in THP-1 cell lysates)) EUB0000639a PI4KB; assay type: subcellular; conditions: lysate, at 0.04 µM
[5] = molecular target: Ribosomal protein S6 kinase alpha-4 (Homo sapiens) (UniProt O75676); experiment: Selectivity interaction (KinomeScan (DiscoverX)) EUB0000595a RPS6KA4; conditions: at 10 µM
[6] = molecular target: Death-associated protein kinase 1 (Homo sapiens, UniProt P53355); experiment: Selectivity interaction (Kinase screening (Nanosyn)) EUB0000604a DAPK1
[7] = molecular target: T3, Serine/threonine-protein kinase Nek5 (Homo sapiens) (UniProt Q6P3R8); experiment: Selectivity interaction (KinomeScan (DiscoverX)) EUB0000045b NEK5
T3 sequence (whole entry): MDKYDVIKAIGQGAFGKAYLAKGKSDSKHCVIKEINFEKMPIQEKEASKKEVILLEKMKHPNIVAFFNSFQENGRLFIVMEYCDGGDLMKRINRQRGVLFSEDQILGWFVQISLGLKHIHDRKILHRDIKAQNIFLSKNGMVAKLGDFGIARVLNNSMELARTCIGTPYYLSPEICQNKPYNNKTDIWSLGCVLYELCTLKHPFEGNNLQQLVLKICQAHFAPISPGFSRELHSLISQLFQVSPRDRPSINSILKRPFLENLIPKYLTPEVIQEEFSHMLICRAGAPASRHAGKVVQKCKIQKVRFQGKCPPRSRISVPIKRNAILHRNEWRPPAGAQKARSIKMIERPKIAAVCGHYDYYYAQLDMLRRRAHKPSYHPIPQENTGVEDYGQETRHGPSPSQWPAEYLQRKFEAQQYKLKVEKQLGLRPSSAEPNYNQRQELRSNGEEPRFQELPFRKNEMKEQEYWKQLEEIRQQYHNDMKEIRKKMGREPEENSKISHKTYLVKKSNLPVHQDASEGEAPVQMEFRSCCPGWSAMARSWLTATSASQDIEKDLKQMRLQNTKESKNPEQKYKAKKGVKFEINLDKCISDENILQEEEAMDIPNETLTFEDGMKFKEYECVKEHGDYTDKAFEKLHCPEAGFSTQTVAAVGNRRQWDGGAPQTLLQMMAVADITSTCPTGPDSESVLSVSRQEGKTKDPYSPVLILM

[8] = molecular target: T4, Serine/threonine-protein kinase TBK1 (Homo sapiens) (UniProt Q9UHD2); experiment: Selectivity interaction (KinomeScan (DiscoverX)) EUB0000695a TBK1; conditions: at 100 nM
T4 sequence (whole entry): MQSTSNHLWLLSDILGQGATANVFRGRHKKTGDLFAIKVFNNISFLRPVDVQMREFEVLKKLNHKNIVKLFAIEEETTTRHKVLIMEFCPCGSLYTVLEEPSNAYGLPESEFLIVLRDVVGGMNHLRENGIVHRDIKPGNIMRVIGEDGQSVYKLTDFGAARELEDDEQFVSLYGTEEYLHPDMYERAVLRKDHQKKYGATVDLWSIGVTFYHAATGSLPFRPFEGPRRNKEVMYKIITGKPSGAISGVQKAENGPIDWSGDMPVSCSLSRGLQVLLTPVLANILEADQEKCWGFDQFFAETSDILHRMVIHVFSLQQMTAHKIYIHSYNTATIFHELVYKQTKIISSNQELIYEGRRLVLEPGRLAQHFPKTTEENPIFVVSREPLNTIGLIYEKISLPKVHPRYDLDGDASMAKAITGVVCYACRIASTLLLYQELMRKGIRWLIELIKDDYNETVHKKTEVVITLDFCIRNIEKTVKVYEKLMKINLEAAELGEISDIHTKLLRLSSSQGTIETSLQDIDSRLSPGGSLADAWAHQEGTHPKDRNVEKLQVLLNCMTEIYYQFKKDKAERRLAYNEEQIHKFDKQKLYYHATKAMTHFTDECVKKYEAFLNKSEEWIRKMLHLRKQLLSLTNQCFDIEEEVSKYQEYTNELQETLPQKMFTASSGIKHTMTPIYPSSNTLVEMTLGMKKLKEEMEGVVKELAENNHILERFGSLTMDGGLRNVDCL

[9] = molecular target: T2, Casein kinase I isoform alpha; experiment: Selectivity interaction (KinomeScan (DiscoverX)) EUB0000607a CSNK1A1; conditions: at 10 µM

T2 sequence (P48729 2-337 limits assumed): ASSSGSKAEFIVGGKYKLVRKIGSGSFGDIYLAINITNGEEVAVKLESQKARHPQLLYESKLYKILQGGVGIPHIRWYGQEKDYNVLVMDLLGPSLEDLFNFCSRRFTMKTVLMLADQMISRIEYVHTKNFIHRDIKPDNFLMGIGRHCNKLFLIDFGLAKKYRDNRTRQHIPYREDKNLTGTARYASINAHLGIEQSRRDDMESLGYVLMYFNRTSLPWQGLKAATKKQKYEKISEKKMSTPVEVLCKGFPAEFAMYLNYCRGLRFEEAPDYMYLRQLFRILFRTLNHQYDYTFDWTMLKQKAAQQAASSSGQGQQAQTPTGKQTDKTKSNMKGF
Phosphatidylinositol 4-kinase beta, sequence (Q9UBF8 2-816 limits assumed): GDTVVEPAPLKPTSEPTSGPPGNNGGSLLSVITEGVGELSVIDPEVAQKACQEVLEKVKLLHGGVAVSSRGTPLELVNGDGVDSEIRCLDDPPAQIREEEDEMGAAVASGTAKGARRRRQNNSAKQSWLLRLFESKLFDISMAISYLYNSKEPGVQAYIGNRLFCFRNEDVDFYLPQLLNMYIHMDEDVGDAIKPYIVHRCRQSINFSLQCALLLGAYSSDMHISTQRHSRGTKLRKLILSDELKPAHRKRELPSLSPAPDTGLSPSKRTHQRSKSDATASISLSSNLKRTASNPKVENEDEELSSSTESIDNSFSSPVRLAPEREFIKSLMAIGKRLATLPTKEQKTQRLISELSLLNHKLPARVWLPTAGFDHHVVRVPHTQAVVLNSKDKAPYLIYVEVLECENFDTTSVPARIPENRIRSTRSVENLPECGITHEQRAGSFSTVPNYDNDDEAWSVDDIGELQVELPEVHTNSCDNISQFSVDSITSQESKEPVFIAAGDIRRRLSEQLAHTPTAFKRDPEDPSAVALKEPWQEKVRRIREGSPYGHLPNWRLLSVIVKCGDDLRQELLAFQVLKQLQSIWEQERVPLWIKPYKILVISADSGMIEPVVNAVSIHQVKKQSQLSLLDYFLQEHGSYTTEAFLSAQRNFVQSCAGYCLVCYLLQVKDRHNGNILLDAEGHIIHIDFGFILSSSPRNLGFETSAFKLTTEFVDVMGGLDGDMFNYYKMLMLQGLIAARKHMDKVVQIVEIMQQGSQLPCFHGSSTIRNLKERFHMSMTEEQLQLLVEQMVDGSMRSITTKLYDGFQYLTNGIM
Death-associated protein kinase 1, sequence (P53355 whole entry, looked up): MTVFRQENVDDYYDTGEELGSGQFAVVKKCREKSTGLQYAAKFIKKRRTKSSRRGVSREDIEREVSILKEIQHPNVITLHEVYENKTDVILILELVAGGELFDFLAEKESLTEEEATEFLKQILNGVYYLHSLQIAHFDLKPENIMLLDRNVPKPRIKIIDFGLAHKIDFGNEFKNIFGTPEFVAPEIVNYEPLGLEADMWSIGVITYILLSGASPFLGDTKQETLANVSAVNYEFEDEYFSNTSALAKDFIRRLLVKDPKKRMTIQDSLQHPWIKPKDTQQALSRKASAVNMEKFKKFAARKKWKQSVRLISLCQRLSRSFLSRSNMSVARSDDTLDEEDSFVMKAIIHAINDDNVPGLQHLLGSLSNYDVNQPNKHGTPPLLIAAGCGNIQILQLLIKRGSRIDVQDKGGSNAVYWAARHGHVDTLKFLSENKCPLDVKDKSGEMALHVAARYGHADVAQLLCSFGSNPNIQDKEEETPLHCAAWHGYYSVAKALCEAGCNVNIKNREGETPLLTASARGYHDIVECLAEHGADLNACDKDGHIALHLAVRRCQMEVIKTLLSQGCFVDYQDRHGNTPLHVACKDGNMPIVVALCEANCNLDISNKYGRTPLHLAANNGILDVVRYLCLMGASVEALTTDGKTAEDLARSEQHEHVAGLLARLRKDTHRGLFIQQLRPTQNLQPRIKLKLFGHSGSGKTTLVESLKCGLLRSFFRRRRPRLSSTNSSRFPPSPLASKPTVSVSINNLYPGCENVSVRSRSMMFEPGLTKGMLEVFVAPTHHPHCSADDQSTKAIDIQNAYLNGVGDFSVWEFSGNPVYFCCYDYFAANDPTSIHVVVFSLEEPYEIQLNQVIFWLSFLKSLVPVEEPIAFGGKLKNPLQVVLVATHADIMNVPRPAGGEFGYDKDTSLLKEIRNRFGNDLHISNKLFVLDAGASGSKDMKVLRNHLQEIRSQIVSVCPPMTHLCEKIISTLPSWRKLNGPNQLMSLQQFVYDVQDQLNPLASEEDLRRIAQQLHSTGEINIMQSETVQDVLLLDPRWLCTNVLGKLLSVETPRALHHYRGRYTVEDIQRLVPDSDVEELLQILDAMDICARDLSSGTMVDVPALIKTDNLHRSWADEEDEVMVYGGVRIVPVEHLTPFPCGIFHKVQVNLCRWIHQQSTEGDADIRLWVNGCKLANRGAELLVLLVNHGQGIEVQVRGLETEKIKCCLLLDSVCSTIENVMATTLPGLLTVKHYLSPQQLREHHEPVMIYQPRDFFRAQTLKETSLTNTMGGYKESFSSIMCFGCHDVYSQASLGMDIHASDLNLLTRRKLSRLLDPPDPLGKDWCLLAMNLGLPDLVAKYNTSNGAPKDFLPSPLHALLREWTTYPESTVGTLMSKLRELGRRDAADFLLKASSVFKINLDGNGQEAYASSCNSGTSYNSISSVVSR
Serine/threonine-protein kinase Nek7 (Homo sapiens), sequence (Q8TDX7 whole entry, looked up, canonical isoform): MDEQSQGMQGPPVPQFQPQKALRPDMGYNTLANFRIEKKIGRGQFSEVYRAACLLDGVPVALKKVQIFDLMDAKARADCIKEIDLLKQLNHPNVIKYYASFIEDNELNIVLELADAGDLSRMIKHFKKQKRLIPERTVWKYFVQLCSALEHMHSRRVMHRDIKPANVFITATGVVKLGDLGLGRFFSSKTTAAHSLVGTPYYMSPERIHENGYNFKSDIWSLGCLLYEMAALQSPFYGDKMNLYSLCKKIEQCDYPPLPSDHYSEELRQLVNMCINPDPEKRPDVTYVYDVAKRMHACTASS
Ribosomal protein S6 kinase alpha-4 (Homo sapiens), sequence (O75676 whole entry, looked up): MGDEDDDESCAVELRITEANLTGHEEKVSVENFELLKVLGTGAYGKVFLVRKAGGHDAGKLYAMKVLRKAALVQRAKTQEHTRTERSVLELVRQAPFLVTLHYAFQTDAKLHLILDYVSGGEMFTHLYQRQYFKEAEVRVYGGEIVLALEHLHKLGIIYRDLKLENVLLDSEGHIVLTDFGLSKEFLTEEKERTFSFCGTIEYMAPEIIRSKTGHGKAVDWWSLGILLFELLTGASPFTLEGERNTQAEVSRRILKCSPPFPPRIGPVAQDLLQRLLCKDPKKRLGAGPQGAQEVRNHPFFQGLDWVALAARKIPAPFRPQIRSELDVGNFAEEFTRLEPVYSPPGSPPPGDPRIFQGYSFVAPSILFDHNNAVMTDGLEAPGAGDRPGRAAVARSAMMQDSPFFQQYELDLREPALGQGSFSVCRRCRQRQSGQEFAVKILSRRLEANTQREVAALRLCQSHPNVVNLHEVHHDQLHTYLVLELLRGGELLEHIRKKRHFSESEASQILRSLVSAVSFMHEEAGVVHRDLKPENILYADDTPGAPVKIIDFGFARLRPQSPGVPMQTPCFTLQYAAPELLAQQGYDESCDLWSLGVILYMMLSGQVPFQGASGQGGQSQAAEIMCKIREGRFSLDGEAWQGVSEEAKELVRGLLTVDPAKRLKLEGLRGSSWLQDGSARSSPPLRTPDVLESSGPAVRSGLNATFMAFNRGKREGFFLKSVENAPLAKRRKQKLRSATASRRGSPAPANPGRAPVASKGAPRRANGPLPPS

SMILES: CCN(CC)CCCCNc1ncc2cc(-c3cc(OC)cc(OC)c3)c(NC(=O)NC(C)(C)C)nc2n1
- % of control [1]: 100%

SMILES: CC[C@@H]1[C@H](F)C(=O)N[C@@H]1COc1nccc2cc(C(N)=O)c(OC)cc12 [ZIMLOVISERTIB]
- % of inhibition [2]: 1.5%
- % of inhibition ([3]; at 0.01 µM): -11.5%
- % of inhibition ([3]; at 0.04 µM): -1%
- % of inhibition ([3]; at 0.2 µM): -9.3%
- % of inhibition ([3]; at 1 µM): -0.4%
- % of inhibition ([3]; at 5 µM): 16.4%
- % of inhibition [4]: -0.3%

SMILES: COCC(=O)NC/C=C/c1ccc2ncnc(Nc3ccc(Oc4ccc(C)nc4)c(C)c3)c2c1 [CP-724714]
- % of control [5]: 97%

SMILES: Cc1cnc(Nc2ccc(F)cc2Cl)nc1-c1c[nH]c(C(=O)N[C@H](CO)c2cccc(Cl)c2)c1
- % of inhibition [6]: 2%

SMILES: C=CC(=O)Nc1cc(-n2c(=O)ccc3cnc4ccc(-c5ccc(NS(C)(=O)=O)cc5)cc4c32)ccc1C
- % of control ([7]; at 1 µM): 100%
- % of control ([7]; at 10 µM): 84%

SMILES: Cc1cc(F)c(C(=O)Nc2cccc(-c3nncn3C(C)C)n2)cc1-n1cnc(C2CC2)c1
- % of control [8]: 90%

SMILES: CNC(=O)Nc1ccc(-c2nc(N3CC4CCC(C3)O4)c3cnn(C4CCC5(CC4)OCCO5)c3n2)cc1
- % of control [9]: 100%
